Experimental data reported in patent EP0598515A1, “Method for herbicidal activity-enhancing, activity-enhanced herbicidal composition and activity-enhancing composition” (ISHIHARA SANGYO KAISHA LTD., priority 1992, dated 1994).
Where two headings read alike, the source gives them in different places.

Tests used:
Format in all cases: in vivo
[1] = test system: johnsongrass (Sorghum halepense L.); assay: Test Example 10: pot test on rhizome plants, Example 8 suspension concentrate with Frigate; settings: duplicate; for inhibition at 10 g/ha / inhibition at 20 g/ha / inhibition at 30 g/ha / inhibition at 40 g/ha: Sorghum halepense; for inhibition at 10 g/ha: Compound A 10 g/ha
Method: Rhizomes of johnsongrass (Sorghum halepense L.) induced to germinate were transplanted in 1/150,000-hectare pots filled with upland soil and arranged in a duplicate system. When the johnsongrass plants grew to a 3- to 6-leaf stage, the oil-based suspension concentrate obtained in Example 8 was diluted with 200 liters/hectare of water containing a predetermined amount of Frigate and was applied foliarly to the plants with a small spray gun.
Seventeen days and fifty six days after treatment (D.A.T.) the growth inhibition of plants was evaluated with visual observation in the same manner as in Test Example 1 and are shown in Table 10.

[2] = test system: Common lambsquarters (Chenopodium album L.); assay: Test Example 8: pot test, Example 8 suspension concentrate with Frigate; settings: 408 h, 17 days after treatment, duplicate, read-out: Growth Inhibition (%) of Common Lambsquarters; for inhibition at 5 g/ha: Compound A 5 g/ha; for inhibition at 10 g/ha: Compound A 10 g/ha; for inhibition at 20 g/ha: Compound A 20 g/ha; for inhibition at 40 g/ha: Compound A 40 g/ha
Method: Common lambsquarters (Chenopodium album L.) seeds were sown in 1/1,000,000-hectare pots filled with upland soil and arranged in a duplicate system. When the common lambsquarters plants grew to a 8- to 9-leaf stage, the oil-based suspension concentrate obtained in Example 8 was diluted with 500 liters/hectare of water containing a predetermined amount of Frigate and was applied foliarly to the plants with a small spray gun.
Seventeen days after treatment, the growth inhibition of plants was evaluated with visual observation in the same manner as in Test Example 1 and are shown in Table 8.

[3] = test system: common cocklebur (Xanthium strumarium L.); assay: Test Example 9: pot test, Example 8 suspension concentrate with Frigate; settings: 22 days after treatment, duplicate
Method: Velvetleaf (Abutilon theophrasti MEDIC.) and common cocklebur (Xanthium strumarium L.) seeds were sown in 1/1,000,000-hectare pots filled with upland soil and arranged in a duplicate system. When the velvetleaf plants and common cocklebur plants grew to a 2.1- and 2.3-leaf stage, respectively, the oil-based suspension concentrate obtained in Example 8 was diluted with 500 liters/hectare of water containing a predetermined amount of Frigate and was applied foliarly to the plants with a small spray gun.
Twenty two days after treatment, the growth inhibition of plants was evaluated with visual observation in the same manner as in Test Example 1 and are shown in Table 9.

COc1cc(OC)nc(NC(=O)NS(=O)(=O)c2ncccc2C(=O)N(C)C)n1 [Compound A, N-[(4,6-dimethoxypyrimidin-2-yl)aminocarbonyl]-3-dimethylaminocarbonyl-2-pyridinesulfonamide]
Growth Inhibition (%) of Johnsongrass 17 D.A.T. ([1]; Frigate 0.1 % by volume, Compound A 30 g/ha, 17 days after treatment): 80% | Growth Inhibition (%) of Johnsongrass 17 D.A.T. ([1]; Frigate 0.2 % by volume, Compound A 20 g/ha, 17 days after treatment): 80% | Growth Inhibition (%) of Johnsongrass 17 D.A.T. ([1]; Frigate 0.2 % by volume, Compound A 30 g/ha, 17 days after treatment): 80% | Growth Inhibition (%) of Johnsongrass 56 D.A.T. ([1]; Frigate 0.2 % by volume, Compound A 30 g/ha, 56 days after treatment): 98% | Growth Inhibition (%) of Johnsongrass 56 D.A.T. ([1]; Frigate: No addition, Compound A 40 g/ha, 56 days after treatment): 98% | inhibition at 10 g/ha ([1]; 408 h, Frigate 0.1 % by volume, 17 days after treatment, read-out: Growth Inhibition (%) of Johnsongrass 17 D.A.T.): 65% | inhibition at 20 g/ha ([1]; 408 h, Frigate 0.1 % by volume, Compound A 20 g/ha, 17 days after treatment, read-out: Growth Inhibition (%) of Johnsongrass 17 D.A.T.): 75% | inhibition at 30 g/ha ([1]; 408 h, Frigate 0.1 % by volume, Compound A 30 g/ha, 17 days after treatment, read-out: Growth Inhibition (%) of Johnsongrass 17 D.A.T.): 75% | inhibition at 10 g/ha ([1]; 408 h, Frigate 0.2 % by volume, 17 days after treatment, read-out: Growth Inhibition (%) of Johnsongrass 17 D.A.T.): 70% | inhibition at 20 g/ha ([1]; 408 h, Frigate 0.2 % by volume, Compound A 20 g/ha, 17 days after treatment, read-out: Growth Inhibition (%) of Johnsongrass 17 D.A.T.): 75% | inhibition at 30 g/ha ([1]; 408 h, Frigate 0.2 % by volume, Compound A 30 g/ha, 17 days after treatment, read-out: Growth Inhibition (%) of Johnsongrass 17 D.A.T.): 85% | inhibition at 20 g/ha ([1]; 408 h, Frigate: No addition, Compound A 20 g/ha, 17 days after treatment, read-out: Growth Inhibition (%) of Johnsongrass 17 D.A.T.): 65% | inhibition at 30 g/ha ([1]; 408 h, Frigate: No addition, Compound A 30 g/ha, 17 days after treatment, read-out: Growth Inhibition (%) of Johnsongrass 17 D.A.T.): 60% | inhibition at 40 g/ha ([1]; 408 h, Frigate: No addition, Compound A 40 g/ha, 17 days after treatment, read-out: Growth Inhibition (%) of Johnsongrass 17 D.A.T.): 65% | inhibition at 10 g/ha ([1]; 1344 h, Frigate 0.1 % by volume, 56 days after treatment, read-out: Growth Inhibition (%) of Johnsongrass 56 D.A.T.): 100% | inhibition at 20 g/ha ([1]; 1344 h, Frigate 0.1 % by volume, Compound A 20 g/ha, 56 days after treatment, read-out: Growth Inhibition (%) of Johnsongrass 56 D.A.T.): 100% | inhibition at 30 g/ha ([1]; 1344 h, Frigate 0.1 % by volume, Compound A 30 g/ha, 56 days after treatment, read-out: Growth Inhibition (%) of Johnsongrass 56 D.A.T.): 100% | inhibition at 10 g/ha ([1]; 1344 h, Frigate 0.2 % by volume, 56 days after treatment, read-out: Growth Inhibition (%) of Johnsongrass 56 D.A.T.): 100% | inhibition at 20 g/ha ([1]; 1344 h, Frigate 0.2 % by volume, Compound A 20 g/ha, 56 days after treatment, read-out: Growth Inhibition (%) of Johnsongrass 56 D.A.T.): 100% | inhibition at 30 g/ha ([1]; 1344 h, Frigate 0.2 % by volume, Compound A 30 g/ha, 56 days after treatment, read-out: Growth Inhibition (%) of Johnsongrass 56 D.A.T.): 100% | inhibition at 20 g/ha ([1]; 1344 h, Frigate: No addition, Compound A 20 g/ha, 56 days after treatment, read-out: Growth Inhibition (%) of Johnsongrass 56 D.A.T.): 90% | inhibition at 40 g/ha ([1]; 1344 h, Frigate: No addition, Compound A 40 g/ha, 56 days after treatment, read-out: Growth Inhibition (%) of Johnsongrass 56 D.A.T.): 100% | inhibition at 5 g/ha ([2]; Frigate 0.25 % by volume): 50% | inhibition at 10 g/ha ([2]; Frigate 0.25 % by volume): 60% | inhibition at 20 g/ha ([2]; Frigate 0.25 % by volume): 80% | inhibition at 40 g/ha ([2]; Frigate 0.25 % by volume): 90% | inhibition at 5 g/ha ([2]; Frigate 0.5 % by volume): 55% | inhibition at 10 g/ha ([2]; Frigate 0.5 % by volume): 70% | inhibition at 20 g/ha ([2]; Frigate 0.5 % by volume): 85% | inhibition at 40 g/ha ([2]; Frigate 0.5 % by volume): 90% | inhibition at 5 g/ha ([2]; Frigate: No addition): 0% | inhibition at 10 g/ha ([2]; Frigate: No addition): 0% | inhibition at 20 g/ha ([2]; Frigate: No addition): 50% | inhibition at 40 g/ha ([2]; Frigate: No addition): 80% | Growth Inhibition (%) Common Cocklebur ([3]; Frigate 0.25 % by volume, Compound A 10 g/ha): 25% | Growth Inhibition (%) Common Cocklebur ([3]; Frigate: No addition, Compound A 20 g/ha): 40% | inhibition at 10 g/ha ([3]; Xanthium strumarium, 528 h, Frigate 0.125 % by volume, Compound A 10 g/ha, read-out: Growth Inhibition (%) Common Cocklebur): 35% | inhibition at 20 g/ha ([3]; Xanthium strumarium, 528 h, Frigate 0.125 % by volume, Compound A 20 g/ha, read-out: Growth Inhibition (%) Common Cocklebur): 80%
